This passage reports IC50 results from US20170066759A1, “AROMATIC 5-MEMBERED HETEROCYCLIC DERIVATIVE HAVING TRPV4-INHIBITING ACTIVITY” (Shionogi & Co., Ltd., priority 2012, published 2017).

SMILES strings stand for the structures. pIC50: −log10 of the molar value. Bounds are passed on as bounds.

For the experiment, the target named is T1, human TRPV4 (hTRPV4/CHO cells) (Homo sapiens, UniProt Q9HBA0).
T1 construct: expressed in transfected cells; host or cells: CHO-K1
T1 sequence (Q9HBA0 whole entry): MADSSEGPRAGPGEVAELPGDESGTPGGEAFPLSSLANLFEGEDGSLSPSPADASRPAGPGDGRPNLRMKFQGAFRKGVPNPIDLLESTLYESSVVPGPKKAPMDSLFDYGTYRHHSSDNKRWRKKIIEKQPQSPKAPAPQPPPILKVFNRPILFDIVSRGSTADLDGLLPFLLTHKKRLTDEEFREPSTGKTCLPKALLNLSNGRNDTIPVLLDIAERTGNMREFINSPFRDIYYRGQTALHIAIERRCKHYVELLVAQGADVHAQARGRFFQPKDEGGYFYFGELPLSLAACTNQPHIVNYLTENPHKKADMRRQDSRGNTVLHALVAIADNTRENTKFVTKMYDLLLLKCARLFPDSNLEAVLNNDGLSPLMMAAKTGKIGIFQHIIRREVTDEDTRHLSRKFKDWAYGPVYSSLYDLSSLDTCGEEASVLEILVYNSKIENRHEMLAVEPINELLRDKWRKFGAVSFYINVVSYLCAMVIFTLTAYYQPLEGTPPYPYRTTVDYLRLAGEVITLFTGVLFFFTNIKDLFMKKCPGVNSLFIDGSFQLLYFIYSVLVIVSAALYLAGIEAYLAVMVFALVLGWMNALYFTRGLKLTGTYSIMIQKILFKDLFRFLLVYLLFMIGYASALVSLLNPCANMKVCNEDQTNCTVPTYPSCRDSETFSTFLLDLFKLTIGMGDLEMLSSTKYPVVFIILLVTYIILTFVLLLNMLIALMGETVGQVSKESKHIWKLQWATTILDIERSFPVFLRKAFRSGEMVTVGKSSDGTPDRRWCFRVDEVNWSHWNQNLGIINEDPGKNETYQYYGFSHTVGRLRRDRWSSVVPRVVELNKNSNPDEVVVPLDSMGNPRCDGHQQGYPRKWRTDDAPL
As to the kind of experiment: Test Example 1: TRPV4 inhibitory activity (IC50 value), 4α-PDD stimulation, Fluo4 calcium fluorescence (FLIPR TETRA). The class given is cell-based. The note with it: Test Example 1, 4α-PDD stimulation, read-out: Test 1 IC50.
As to `CC(O)c1nc(CO)sc1-c1csc(NC(=O)Cc2ccc(S(=O)(=O)C(F)(F)F)cc2)n1` (racemic) [Compound I-235], the pIC50 was greater than 7.00.
Then `Cc1nc(CO)sc1-c1csc(NC(=O)C2Oc3ccc(Cl)cc3O2)n1` (racemic) [Compound I-238], with greater than 7.00.
`Cc1nc(CO)sc1-c1csc(NC(=O)CC2Cc3ccccc3C2)n1` (racemic) [Compound I-239]: the pIC50 is 6.00 to 7.00.
Take `Cc1nc(C(C)O)sc1-c1csc(NC(=O)Cc2ccc(S(=O)(=O)C(F)(F)F)cc2)n1` (racemic) [Compound I-287]: the pIC50 is greater than 7.00.
Then `Cc1nc(C(C)O)sc1-c1csc(NC(=O)[C@H]2C[C@H](F)C2)n1` (mixture of isomers) [Compound I-298], with 5.10 to 6.00; and `Cc1nc(C(C)O)sc1-c1csc(NC(=O)[C@H]2C[C@@H](F)C2)n1` (mixture of isomers) [Compound I-299], with 5.10 to 6.00.
Then `Cc1nc(C(C)O)oc1-c1csc(NC(=O)Cc2ccc(S(=O)(=O)C(F)(F)F)cc2)n1` (racemic) [Compound I-387], with 6.00 to 7.00; and `Cc1nc(C(C)O)oc1-c1csc(NC(=O)Cn2cc(C(F)(F)F)cn2)n1` (racemic) [Compound I-420], with 5.10 to 6.00.
For `Cc1nc(C(C)O)sc1-c1csc(NC(=O)C2CN(c3ccc(C(F)(F)F)cc3)C2)n1` (racemic) [Compound I-467], the pIC50 was greater than 7.00.
Then `CC(=O)NC(C)c1nc(CO)sc1-c1csc(NC(=O)Cc2ccc(S(=O)(=O)C(F)(F)F)cc2)n1` (racemic) [Compound I-472], with 5.10 to 6.00; and `Cc1nc(C(C)O)sc1-c1csc(NC(=O)C2CN(c3ccc(C(F)(F)F)cn3)C2)n1` (racemic) [Compound I-473], with 6.00 to 7.00; and `CC(OC(N)=O)c1nc(CO)sc1-c1csc(NC(=O)Cc2ccc(S(=O)(=O)C(F)(F)F)cc2)n1` (racemic) [Compound I-474], with 6.00 to 7.00.
Consider `CC(O)c1nc(CO)c(-c2csc(NC(=O)Cc3ccc(S(=O)(=O)C(F)(F)F)cc3)n2)s1` (racemic) [Compound I-500], for which the pIC50 is 6.00 to 7.00.
As to `Cc1nc(C)c(-c2csc(NC(=O)C3(C)CCN(c4ccc(C(F)(F)F)cc4)CC3)n2)s1` (racemic) [Compound I-512], the pIC50 is greater than 7.00.
`Cc1nc(C)c(-c2csc(NC(=O)C3(CC(=O)OC(C)(C)C)CN(c4ccc(C(F)(F)F)cc4)C3)n2)s1` (racemic) [Compound I-519]: the pIC50 is greater than 7.00.
With `COc1cc(CC(=O)Nc2nc(-c3sc(C)nc3C)cs2)cc(C(=O)NC(C(C)C)C(F)(F)F)c1` (racemic) [Compound I-527], the negative-log IC50 (pIC50) was greater than 7.00.
`Cc1nc(C)c(-c2csc(NC(=O)C3(CCCO)CN(c4ccc(C(F)(F)F)cc4)C3)n2)s1` (racemic) [Compound I-529]: the pIC50 is 6.00 to 7.00.
As for `Cc1nc(C)c(-c2csc(NC(=O)C3(COCc4ccccc4)CN(c4ccc(C(F)(F)F)cc4)C3)n2)s1` (racemic) [Compound I-530], the negative-log IC50 (pIC50) is greater than 7.00.
`COCC1(C(=O)Nc2nc(-c3sc(C)nc3C)cs2)CN(c2ccc(C(F)(F)F)cc2)C1` (racemic) [Compound I-531]: the negative logarithm of the IC50 (pIC50) was greater than 7.00.
Then `Cc1nc(C)c(-c2csc(NC(=O)C3(CO)CN(c4ccc(C(F)(F)F)cc4)C3)n2)s1` (racemic) [Compound I-532], with greater than 7.00.
Then `Cc1nc(C)c(-c2csc(NC(=O)C3(F)CN(c4ccc(C(F)(F)F)cc4)C3)n2)s1` (racemic) [Compound I-533], with greater than 7.00.
Regarding `Cc1nc(C)c(-c2csc(NCC(O)c3ccccc3)n2)s1` (racemic) [II-39], the negative logarithm of the IC50 (pIC50) was 6.00 to 7.00.
Then `Cc1nc(C)c(-c2csc(NC(Cc3ccc(Cl)cc3)C(=O)NCc3ccccc3)n2)s1` (racemic) [II-43], with 5.10 to 6.00.
Take `Cc1nc(C)c(-c2csc(NC(Cc3ccc(Cl)cc3)C(=O)Nc3ccccc3)n2)s1` (racemic) [II-44]: the negative-log IC50 (pIC50) was 5.10 to 6.00.
On to `Cc1nc(C)c(-c2csc(NC(Cc3ccc(Cl)cc3)C(=O)N3CCN(C)CC3)n2)s1` (racemic) [II-45], for which the pIC50 is 5.10 to 6.00.
As to `Cc1nc(C)c(-c2csc(NC(Cc3ccc(Cl)cc3)C(=O)NC3CCOCC3)n2)s1` (racemic) [II-46], the negative-log IC50 (pIC50) is 5.10 to 6.00.
For the molecule `Cc1nc(C)c(-c2csc(NCC3Cc4cc(Cl)ccc4O3)n2)s1` (racemic) [II-48], the pIC50 was greater than 7.00.
On to `CCCCOC(CNc1nc(-c2sc(C)nc2C)cs1)c1ccc(Cl)cc1` (racemic) [II-50], for which the pIC50 was 6.00 to 7.00.
In the case of `CC(OC(N)=O)c1nc(CO)sc1-c1csc(NC(=O)Cc2ccc(S(=O)(=O)C(F)(F)F)cc2)n1` (single isomer, unassigned) [Compound I-478], the pIC50 was 6.00 to 7.00.
Consider `CC(OC(N)=O)c1nc(CO)sc1-c1csc(NC(=O)Cc2ccc(S(=O)(=O)C(F)(F)F)cc2)n1` (single isomer, unassigned) [Compound I-479], for which the negative logarithm of the IC50 (pIC50) is 5.10 to 6.00.
Then `CC(=O)NC(C)c1nc(CO)sc1-c1csc(NC(=O)Cc2ccc(S(=O)(=O)C(F)(F)F)cc2)n1` (single isomer, unassigned) [Compound I-481], with 6.00 to 7.00; and `CC(=O)NC(C)c1nc(CO)sc1-c1csc(NC(=O)Cc2ccc(S(=O)(=O)C(F)(F)F)cc2)n1` (single isomer, unassigned) [Compound I-482], with 6.00 to 7.00.
Consider `Cc1nc(CO)sc1-c1csc(NC(=O)OC(C)(C)C)n1` [Compound I-30], for which the pIC50 was 5.10 to 6.00.
Consider `Cc1nc(C)c(-c2nc(NC(=O)Cc3c(F)cccc3F)sc2-c2ccncc2)s1` [Compound I-60], for which the pIC50 is 5.10 to 6.00.
Consider `Cc1nc(C)c(-c2nc(NC(=O)Cc3c(F)cccc3F)sc2-c2cscn2)s1` [Compound I-61], for which the pIC50 is 6.00 to 7.00.
In the case of `Cc1nc(C)c(-c2nc(NC(=O)Cc3c(F)cccc3F)sc2-c2cnn(C)c2)s1` [Compound I-62], the negative logarithm of the IC50 (pIC50) was 5.10 to 6.00.
With `Cc1nc(C)c(-c2nc(NC(=O)Cc3c(F)cccc3F)sc2-c2cccnc2)s1` [Compound I-63], the negative-log IC50 (pIC50) is 5.10 to 6.00.
With `Cc1nc(C)c(-c2nc(NC(=O)Cc3c(F)cccc3F)sc2-c2ccccc2O)s1` [Compound I-64], the negative logarithm of the IC50 (pIC50) is 6.00 to 7.00.
Turning to `Cc1nc(C)c(-c2nc(NC(=O)Cc3c(F)cccc3F)sc2I)s1` [Compound I-65], the pIC50 is 5.10 to 6.00.
With `Cc1nc(C)c(-c2nc(NC(=O)Cc3c(F)cccc3F)sc2-c2ccccc2Cl)s1` [Compound I-66], the pIC50 was 5.10 to 6.00.
For `Cc1nc(C)c(-c2nc(NC(=O)Cc3c(F)cccc3F)sc2-c2ccc(N(C)C)cc2)s1` [Compound I-67], the negative-log IC50 (pIC50) is 5.10 to 6.00.
In the case of `Cc1nc(C)c(-c2nc(NC(=O)Cc3c(F)cccc3F)sc2-c2cccc(N(C)C)c2)s1` [Compound I-68], the negative-log IC50 (pIC50) was 5.10 to 6.00.
In the case of `Cc1nc(C)c(-c2nc(NC(=O)Cc3c(F)cccc3F)sc2-c2ccc(O)cc2)s1` [Compound I-69], the pIC50 is 5.10 to 6.00.
`Cc1nc(C)c(-c2nc(NC(=O)Cc3c(F)cccc3F)sc2-c2cccc(O)c2)s1` [Compound I-70]: the negative-log IC50 (pIC50) was 5.10 to 6.00.
Then `C=C(C)c1sc(NC(=O)Cc2c(F)cccc2F)nc1-c1sc(C)nc1C` [Compound I-71], with 5.10 to 6.00; and `Cc1nc(C)c(-c2nc(NC(=O)Cc3c(F)cccc3F)sc2C)s1` [Compound I-72], with 5.10 to 6.00; and `Cc1nc(C)c(-c2nc(NC(=O)Cc3c(F)cccc3F)sc2/C=C\c2ccccc2)s1` [Compound I-73], with 5.10 to 6.00.
For `Cc1nc(C)c(-c2nc(NC(=O)Cc3c(F)cccc3F)sc2CO)s1` [Compound I-74], the pIC50 was 5.10 to 6.00.
With `Cc1nc(C)c(-c2nc(NC(=O)Cc3c(F)cccc3F)sc2C(=O)Nc2ccccc2)s1` [Compound I-75], the pIC50 was 5.10 to 6.00.
In the case of `Cc1nc(CO)sc1-c1csc(NC(=O)Cc2c(F)cccc2F)n1` [Compound I-76], the negative-log IC50 (pIC50) was greater than 7.00.
Then `Cc1nc(C)c(-c2csc(NC(=O)Cc3cc(F)cc(C#N)c3)n2)s1` [Compound I-77], with greater than 7.00; and `Cc1nc(C)c(-c2csc(NC(=O)Cc3ccc(F)c(C#N)c3)n2)s1` [Compound I-78], with greater than 7.00; and `Cc1nc(C)c(-c2csc(NC(=O)Cc3cccc(S(C)(=O)=O)c3)n2)s1` [Compound I-79], with 6.00 to 7.00.
On to `CCS(=O)(=O)c1ccc(CC(=O)Nc2nc(-c3sc(C)nc3C)cs2)cc1` [Compound I-80], for which the pIC50 is 6.00 to 7.00.
Then `Cc1nc(C)c(-c2nc(NC(=O)Cc3c(F)cccc3F)sc2C(=O)Nc2cccc(Cl)c2)s1` [Compound I-82], with 5.10 to 6.00; and `Cc1nc(C)c(-c2nc(NC(=O)Cc3c(F)cccc3F)sc2C(=O)NCc2ccccc2)s1` [Compound I-83], with 5.10 to 6.00; and `Cc1nc(C)c(-c2nc(NC(=O)Cc3c(F)cccc3F)sc2C(=O)Nc2ccc(C#N)cc2)s1` [Compound I-84], with 5.10 to 6.00.
Regarding `Cc1nc(C)c(-c2nc(NC(=O)Cc3c(F)cccc3F)sc2C(=O)Nc2ccc(Cl)cc2)s1` [Compound I-85], the negative logarithm of the IC50 (pIC50) was 5.10 to 6.00.
For the molecule `Cc1nc(C)c(-c2nc(NC(=O)Cc3c(F)cccc3F)sc2C(=O)Nc2ccccc2Cl)s1` [Compound I-86], the negative-log IC50 (pIC50) was 5.10 to 6.00.
In the case of `CCCCCCNC(=O)c1sc(NC(=O)Cc2c(F)cccc2F)nc1-c1sc(C)nc1C` [Compound I-87], the negative logarithm of the IC50 (pIC50) is 5.10 to 6.00.
`Cc1nc(C)c(-c2csc(NC(=O)C3Cc4ccccc4C3)n2)s1` [Compound I-88]: the pIC50 is 5.10 to 6.00.
With `Cc1nc(C)c(-c2csc(NC(=O)N3CCC(C(F)(F)F)CC3)n2)s1` [Compound I-89], the pIC50 was 5.10 to 6.00.
As for `Cc1nc(C)c(-c2csc(NC(=O)N3CC(F)C3)n2)s1` [Compound I-90], the negative-log IC50 (pIC50) is 5.10 to 6.00.
In the case of `Cc1nc(C)c(-c2csc(NC(=O)N(C)c3c(F)cccc3F)n2)s1` [Compound I-91], the pIC50 was 5.10 to 6.00.
For `Cc1nc(C)c(-c2csc(NC(=O)Cc3ccc(S(C)(=O)=O)cc3F)n2)s1` [Compound I-92], the pIC50 is 6.00 to 7.00.
For the molecule `Cc1[nH]c(=O)sc1-c1csc(NC(=O)Cc2c(F)cccc2F)n1` [Compound I-93], the pIC50 is 6.00 to 7.00.
With `CCOC(=O)c1nc(C)c(-c2csc(NC(=O)Cc3c(F)cccc3F)n2)s1` [Compound I-94], the negative-log IC50 (pIC50) was 6.00 to 7.00.
As for `Cc1nc(CO)c(-c2csc(NC(=O)Cc3c(F)cccc3F)n2)s1` [Compound I-96], the pIC50 is 6.00 to 7.00.
